The source of these data is patent US20090186844A1, “SiRNA DELIVERY INTO MAMMALIAN NERVE CELLS” (priority 2003, published 2009).

Assay [1] relates to phrenic burst amplitude. It is filed as in vivo, rat. Here is the method:
To determine if MAP kinase activation is sufficient to facilitate phrenic burst amplitude, one anesthetized rat was intrathecally injected with anisomycin ([…]; 20 mM), a protein synthesis inhibitor that also non-specifically activates MAP kinases.

Assay [2] concerns BDNF protein concentration in ventral C3-C5. Briefly: Ventral C3-C5 BDNF protein concentration (ELISA) after intermittent hypoxia, intrathecal drug pretreatment. The class given is in vivo, rat. Conditions: 60 min post-intermittent hypoxia, intrathecal methysergide 250 microgram/kg or emetine 1 μg/kg 30 min prior. Here is the method: (§1) Surgical procedures have been described elsewhere (7). Rats were anesthetized with isoflurane (2.5% in 50% O2), vagotomized and pump-ventilated (Harvard Apparatus, South Natick, Mass.). The phrenic nerve was dissected, cut distally and desheathed. A laminectomy was performed over C2, and a silicone catheter (2 French, Access Technologies; Skokie, Ill.) connected to a 50 μl glass syringe (Hamilton; Reno Nev.) was advanced through a small hole in the dura at C2, such that the tip of the catheter lay over C4-C5. Following surgery, rats were converted to urethane anesthesia (1.6 g/kg, i.v.) and were paralyzed with pancuronium bromide (2.5 mg/kg). Supplemental doses of urethane were given as necessary. […] End-tidal PCO2 was monitored using a flow-through capnograph (Novametrix, Wallingford, Conn.). […]
Ninety minutes after surgery, stable integrated phrenic discharge was established in hyperoxia (baseline; 50% O2, PaO2>120 mmHg), with CO2 added to the inspired gas so that PaCO2 was 2-3 mmHg above the CO2 apneic threshold (45 mmHg). […] Blood gases were measured before, during, and 15, 30 and 60 min post-intermittent hypoxia or hypercapnia, or at corresponding times in control rats (without hypoxia or hypercapnia). […]

The subject of assay [3] is phrenic long-term facilitation (pLTF). The assay can be described thus: pLTF following intermittent hypoxia after intrathecal pretreatment. The class given is in vivo, rat. Conditions: for effect on pLTF: one anesthetized rat each, intrathecal, 30 min prior to intermittent hypoxia, UO126 0.4 mg, KN62/KN93 2 mg.
Experimental: The phrenic nerve was dissected, cut distally and desheathed. A laminectomy was performed over C2, and a silicone catheter (2 French, Access Technologies; Skokie, Ill.) connected to a 50 μl glass syringe (Hamilton; Reno Nev.) was advanced through a small hole in the dura at C2, such that the tip of the catheter lay over C4-C5. Following surgery, rats were converted to urethane anesthesia (1.6 g/kg, i.v.) and were paralyzed with pancuronium bromide (2.5 mg/kg). Supplemental doses of urethane were given as necessary. […] End-tidal PCO2 was monitored using a flow-through capnograph (Novametrix, Wallingford, Conn.). Periodically throughout the protocol, arterial blood was collected (0.3 ml) in a heparinized syringe to ensure that values remained constant (PaO2<45 mmHg in hypoxia, PaO2>120 mmHg in hyperoxia, PaCO2±1 mmHg from baseline value). Arterial PCO2 was corrected to the target range by adjusting ventilator frequency as necessary.
Ninety minutes after surgery, stable integrated phrenic discharge was established in hyperoxia (baseline; 50% O2, PaO2>120 mmHg), with CO2 added to the inspired gas so that PaCO2 was 2-3 mmHg above the CO2 apneic threshold (45 mmHg). In rats receiving intrathecal injections of vehicle or drug solutions, a bolus injection of 10-15 μl was given, and 30-35 min were allowed for drugs to penetrate the spinal cord prior to beginning protocols. Blood gases were measured before, during, and 15, 30 and 60 min post-intermittent hypoxia or hypercapnia, or at corresponding times in control rats (without hypoxia or hypercapnia).
Intrathecal injections of K252a were performed prior to intermittent hypoxia; K252a was prepared as described above. Intrathecal K252a (n=6) or vehicle (DMSO+artificial CSF; n=5) was delivered 30 min prior to intermittent hypoxia, and phrenic discharge was monitored continuously for 60 min post-intermittent hypoxia.
Assay [4] deals with phrenic motor output. The assay can be described thus: Phrenic activity following intrathecal BDNF injections. It is filed as in vivo, rat. Conditions: 90 min post-injection. The protocol: as §1
Respiratory-related activity was recorded in the phrenic nerve with a bipolar silver electrode. […] Phrenic activity was digitized, recorded and analyzed using the WINDAQ data acquisition system (DATAQ Instruments, Akron, Ohio).
An intrathecal catheter was placed and 10-13 μl solutions of BDNF (0.1 μg, n=5) or vehicle (artificial CSF+0.1% BSA; n=5) were injected. To determine if intrathecal BDNF injections unintentionally spread beyond the spinal cord to cranial motor pools, the hypoglossal nerve was also dissected, desheathed and recorded. […]

The test system of assay [5] is phrenic LTF. Briefly: pLTF following sustained hypoxia after protein phosphatase inhibition. It is filed as in vivo, rat. Conditions: okadaic acid 0.15 mg; 20 mM intrathecally to C4 30 min prior to sustained hypoxia (25 min). Here is the method:
Air, O2 and/or N2 were mixed to achieve the desired pattern of inspired oxygen concentration. […] Control groups receiving similar surgery or treatments, but not receiving hypoxia, […].
Accordingly, in one anesthetized rat, […] okadaic acid (0.15 mg; 20 mM), a protein phosphatase 1/2A (PP1 and PP2A) inhibitor, was delivered intrathecally to C4 30 min prior to sustained hypoxia (25 min). […] This finding has been successfully repeated in three additional rats.

In assay [6] the target is TrkB receptor (rat) (UniProt Q63604). The assay can be described thus: cell-based or functional assay.
Sequence of TrkB receptor (rat) (Q63604 32-821): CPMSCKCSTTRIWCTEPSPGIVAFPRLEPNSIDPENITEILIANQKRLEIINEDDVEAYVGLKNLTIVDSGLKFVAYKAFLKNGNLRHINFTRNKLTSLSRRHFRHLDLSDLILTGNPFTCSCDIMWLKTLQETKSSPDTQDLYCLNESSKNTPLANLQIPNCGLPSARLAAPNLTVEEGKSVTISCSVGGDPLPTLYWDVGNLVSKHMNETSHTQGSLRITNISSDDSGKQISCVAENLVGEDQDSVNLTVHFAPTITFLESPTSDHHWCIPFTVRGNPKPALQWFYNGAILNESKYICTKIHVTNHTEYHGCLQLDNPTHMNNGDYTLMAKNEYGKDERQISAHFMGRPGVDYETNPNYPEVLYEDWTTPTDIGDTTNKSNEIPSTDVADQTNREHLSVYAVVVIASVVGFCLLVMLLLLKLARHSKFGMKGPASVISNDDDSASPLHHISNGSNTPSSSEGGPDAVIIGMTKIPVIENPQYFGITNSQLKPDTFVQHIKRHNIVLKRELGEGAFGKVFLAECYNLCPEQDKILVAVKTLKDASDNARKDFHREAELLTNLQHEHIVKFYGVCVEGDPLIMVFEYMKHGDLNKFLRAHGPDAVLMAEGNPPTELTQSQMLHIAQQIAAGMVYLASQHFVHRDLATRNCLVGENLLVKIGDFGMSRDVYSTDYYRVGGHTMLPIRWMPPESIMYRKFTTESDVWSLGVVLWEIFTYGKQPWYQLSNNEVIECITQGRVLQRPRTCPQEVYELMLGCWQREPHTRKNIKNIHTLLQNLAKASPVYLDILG
Assay [7] relates to hypoglossal nerve activity. Briefly: Hypoglossal nerve activity following intrathecal BDNF injections. Conditions: intrathecal BDNF 0.1 μg; 90 min post-injection. It is filed as in vivo, rat. Here is the method: An intrathecal catheter was placed and 10-13 μl solutions of BDNF (0.1 μg, n=5) or vehicle (artificial CSF+0.1% BSA; n=5) were injected. To determine if intrathecal BDNF injections unintentionally spread beyond the spinal cord to cranial motor pools, the hypoglossal nerve was also dissected, desheathed and recorded. […] In another group of rats, two intrathecal catheters were placed over C4, and a bolus injection of the tyrosine kinase inhibitor K252a was given 10 min prior to BDNF injection (BDNF+K252a; BDNF=0.1 μg; K252a=0.15 microgram, n=3). Recombinant human BDNF (Promega Corporation, Madison, Wis.) was dissolved in artificial CSF+0.1% bovine serum albumin (BSA). K252a (Calbiochem; San Diego, Calif.) was initially dissolved in dimethylsulfoxide (DMSO; 100 μg K252a in 1.5 ml DMSO) and frozen in 200 μl aliquots. Prior to experimentation, 0.8 ml artificial CSF was added to a 200 μl aliquot of K252a/DMSO solution, of which 10-15 μl was delivered intrathecally (final concentration of K252a=0.13-0.2 μg; 28 μM). Vehicle delivery was as described above (DMSO+artificial CSF), except K252a was not added. At 30, 60 and 90 min post-injection, arterial blood gases were analyzed to ensure that PaO2 and PaCO2 levels were similar to pre-injection values.

Counter-ions that a name gives are not always drawn.

For `COc1ccc(C[C@H]2NC[C@H](O)[C@H]2OC(C)=O)cc1` [anisomycin], the “phrenic burst amplitude increase above pre-injection levels” value in assay [1] (one anesthetized rat, intrathecal anisomycin 100 mg, 20 mM, thirty min post-injection) amounted to 60%.
As for `CC[C@@H](CO)NC(=O)[C@@H]1C=C2c3cccc4c3c(cn4C)C[C@H]2N(C)C1` [methysergide, methysergide maleate], in assay [2], the “change in ventral cervical BDNF concentration from corresponding drug control” value is reported as −10±8%.
With `N#CC(=C(/N)Sc1ccccc1N)/C(C#N)=C(/N)Sc1ccccc1N` [UO126], the “effect on pLTF” value in assay [3] was “blocked pLTF”. For the same molecule, the “effect of pretreatment on anisomycin-induced increase in phrenic amplitude” value in assay [1] (UO126 0.4 mg, 100 mM pretreatment, n=1) is “prevented the effect”.
`COc1ccc(S(=O)(=O)N(CCO)c2ccccc2CN(C)C/C=C/c2ccc(Cl)cc2)cc1` [KN93]: in assay [3], the “effect on pLTF” value was “did not block pLTF”.
For the molecule `CC[C@H]1CN2CCc3cc(OC)c(OC)cc3[C@@H]2C[C@@H]1C[C@H]1NCCc2cc(OC)c(OC)cc21` [emetine], in assay [2], the “change in ventral cervical BDNF concentration from corresponding drug control” value came out at 19±11%.
For the molecule `CN([C@@H](Cc1ccc(OS(=O)(=O)c2cccc3cnccc23)cc1)C(=O)N1CCN(c2ccccc2)CC1)S(=O)(=O)c1cccc2cnccc12` [KN62], in assay [3], the “effect on pLTF” value is on record as “did not block pLTF”.
Consider `COC(=O)[C@@]1(O)C[C@H]2O[C@]1(C)n1c3ccccc3c3c4c(c5c6ccccc6n2c5c31)C(=O)NC4` [K252a], for which the “BDNF-induced phrenic facilitation after K252a pre-treatment, change from baseline” value in assay [4] (intrathecal K252a 10 min prior to BDNF 0.1 μg) is 9±10%. Moreover, the “phrenic burst amplitude increase from baseline (pLTF)” value in assay [3] (60 min post-intermittent hypoxia, intrathecal K252a 0.13-0.2 μg 30 min prior) was determined as 25±6%.
With `C=C1[C@@H](O)[C@@H]2O[C@]3(CC[C@H](/C=C/[C@@H](C)[C@@H]4CC(C)=C[C@@]5(O[C@H](C[C@@](C)(O)C(=O)O)CC[C@H]5O)O4)O3)CC[C@H]2O[C@@H]1[C@@H](O)C[C@H](C)[C@H]1O[C@@]2(CCCCO2)CC[C@H]1C` [okadaic acid], the “pLTF 60 min following sustained hypoxia” value in assay [5] was “a modest pLTF was apparent”.
With “Recombinant human BDNF (Promega Corporation) (from UniProt P23560 129-247) (ligand)”, in assay [6], the integrated phrenic discharge (percent change from baseline) 90 min after intrathecal BDNF injection in anesthetized rats (% above baseline) is 125.

B1: BDNF: Recombinant human BDNF (Promega), brain-derived neurotrophic factor (protein)
chain: HSDPARRGELSVCDSISEWVTAADKKTAVDMSGGTVTVLEKVPVSKGQLKQYFYETKCNPMGYTKEGCRGIDKRHWNSQCRTTQSYVRALTMDSKKRIGWRFIRIDTSCVCTLTIKRGR
As for B1, the “integrated phrenic discharge, change above baseline” value in assay [4] (intrathecal BDNF 0.1 μg) came to 125±25%. Also, the “hypoglossal nerve activity, change from baseline” value in assay [7] worked out at 30±17%.
